Test results published in US20070248672A1, “Indole and Azaindole Derivatives with Antitumor Action” (priority 2004, published 2007).
Entries after “also recorded” stand apart in the source; their conditions may differ. Read-outs that look alike come from different tables or passages of the source.

Experiments:
[1] = system: HepG2 cells; experiment: Antiproliferative activity, 48 h treatment, ATPlite luminescence assay, HepG2; format: cell-based, human; details: Homo sapiens; HepG2, 48 h treatment; read-out: Antiproliferative activity (IC50 ± S.D.) HepG2 48 h treatment
Experimental: HepG2: maintained in EMEM medium+10% FCS.
2.3 Scheme of the Antiproliferative Activity Experiment (Treatment Time: 48 Hours)
The cells (concentration: 30,000 cells/ml) are seeded in 90 μl of the respective culture media in 96-well plates. 24 hours after seeding, an aliquot (10 μl) of the drug at the various concentrations is added (for each concentration there are 3 replicates). After 48 hours of treatment the antiproliferative effect is evaluated with a luminescence assay (Perkin Elmer Life Sciences ATPlite):
50 μl of a lysis solution are added to each well followed by an equal volume of a solution containing luciferase and D-luciferin. The ATP present in all the metabolically active cells brings about the transformation reaction of D-luciferin, catalysed by luciferase, to produce a luminescent signal as described in the following scheme: ATP+D-luciferin+O2→Oxyluciferin+AMP+PP1+CO2+Light
The luminescence produced (expressed in counts per second, CPS) is measured by means of a microplate scintillation analyzer (Perkin Elmer Life Sciences Top Count).
Percentage inhibition of luminescence in the treated cells compared to the control is calculated; concentration-response curves are then analysed using Grafit v.5.0.

[2] = system: HT29/Mit human colon carcinoma xenografts; experiment: HT29/Mit human colon carcinoma xenograft, antitumor activity; format: in vivo, athymic Swiss nude mice
Text: 1.1 Model of HT29/Mit human colon carcinoma xenografts-Antitumor activity Female athymic Swiss nude mice (8-10 weeks old) (Charles River, Calco, Italy) were used for the experiments. The animals were maintained at constant temperature and humidity, and were allowed to eat and drink freely. The experimental protocol was approved by the Ethics Committee for Animal Experimentation of the Istituto Nazionale Tumori of Milan. The antitumour effectiveness of the compounds of the invention under discussion was tested on athymic mouse models implanted with HT29 and/or HT29/Mit tumour cells: this latter variety is highly resistant to topotecan treatment. The tumour cells were implanted in vivo via subcutaneous injection of 10^7 cells taken from in vitro cultures. Randomized groups of five mice with bilateral subcutaneous tumours were used for the experiment. Topotecan or other known antitumour agents (dissolved in distilled water or an appropriate solvent) and the compounds of the invention (dissolved in Cremophor EL: ethanol: saline solution in the proportions 5:5:90, or in an appropriate solvent) were administered orally from the third day, alone or in combination, in agreement with a treatment scheme selected in an appropriate manner depending on the type of compound to be studied. The weight (or volume) of the tumour in treated mice compared to controls is represented graphically on the y-axis against time (x-axis).

[3] = system: HT29/Mit cells; experiment: Co-treatment with topotecan, HT29/Mit resistant cells (Combination Index according to Kern); format: cell-based, human; details: HT29/Mit; compound at non-toxic concentrations 0.01-0.1 μM
Experimental: (§1) The cells (HT29 and HT29/Mit: 40,000 cells/ml, LoVo, LoVo/Dx and HCT116: 50,000 cells/ml) are seeded in 100 μl of the respective culture media in 96-well plates. 24 hours after seeding, an aliquot (10 μl) of drug at the various concentrations is added. In the samples in which the effect of the combination of two compounds is to be tested the inhibitor is added immediately before the cytotoxic. For each dose or combination of doses/drugs the effect of the treatment is determined in 4-8 replicates.
(§2) After 72 hours of treatment the antiproliferative effect is evaluated using the sulforhodamine B (SRB) assay: the cells are fixed by adding 25 μl of 50% TCA to each well and left for 1 hour at 4° C. After washing them with water and allowing them to dry, 100 μl of 0.4% SRB in 1% acetic acid are added and left for 30 minutes at room temperature. After 4 washes in 1% acetic acid, they are left to dry then the dye fixed by the proteins is dissolved under basic conditions with 100 μl 10 mM cold Tris and the solution is read using a spectrophotometer at 550 nm.
(§3) Percentage cell growth is calculated as the optical density of treated samples compared to the optical density of controls (untreated cells).
(§4) The Combination Index (C.I.) was determined according to Kern's method, 1988 (who continued from Drewinko B, 1976) (Kem D. H., Cancer Res. 48, 117-121, 1988; Drewinko B., Cancer Biochem. Biophys. 1, 187-195, 1976) by means of the following formula: […], where SFa and SFb are the fractions of cells surviving to treatment with compound a and b, respectively; SFab is the fraction surviving to the combination of compounds a and b. If the result is =1, the interaction between the two compounds is additive; if it is >1, the interaction between the two compounds is synergistic; if it is <1, the interaction between the two compounds is antagonistic.

[4] = molecular target: Vacuolar ATPase in human osteoclastoma (hOc) (Homo sapiens, UniProt P27449+Q13488); experiment: Vacuolar ATPase inhibition in human osteoclastoma (hOc) microsomal fraction; format: biochemical; details: 30 min, 37° C.
Experimental: 1.1 Determination of Vacuolar ATpase Inhibition in Human Osteoclastoma (hOc)
Osteoclast-like giant cells isolated from human osteoclastoma are homogenized using a glass-teflon homogeniser (1000 rpm) and the material is centrifuged for 20 minutes at 6000 g. The resultant pellet is resuspended and centrifuged at 100000 g for 60 minutes to sediment the microsomal fraction. The resultant pellet is resuspended in medium at pH 7.4 and stored under liquid nitrogen.
Inhibition of bafilomycin sensitive ATPase activity is assayed by measuring the release of inorganic phosphate during 30 minutes of incubation, at 37° C., of the human osteoclastoma microsomal fraction in 96-well plates. The reaction medium contains 1 mM ATP, 10 mM Hepes-Tris buffer pH 8, 50 mM KCl, 5 μM valinomycin, 5 μM nigericin, 1 mM CDTA-Tris, 100 μM ammonium molybdate, 0.2 M sucrose and the microsomal fraction (20 μg protein/ml). The reaction is initiated by adding MgSO4 and terminated, after 30 minutes, by adding 4 volumes of the reagent malachite green, prepared according to Chan K., Anal. Biochem. 157, 375-380, 1986.

[5] = system: HT29 cells; experiment: Co-treatment with topotecan, HT29 cells (Combination Index according to Kern); format: cell-based, human; details: HT29; compound at 4 μM (3 experiments) and 8 μM (2 experiments), subtoxic doses
Experimental: as §1, §2, §3, §4

[6] = system: tumour cells; experiment: Antiproliferative effect on tumour cells, combined treatment with known antitumour agents; format: cell-based; details: with topotecan, SN38, taxol, doxorubicin and anthracyclines
Experimental: as §1, §4

[7] = system: HT29 cells; experiment: Antiproliferative activity, 72 h treatment, SRB assay, HT29; format: cell-based, human; details: Homo sapiens
Experimental: HT29 and HT29/Mit (line obtained by prolonged exposure to mitoxantrone, and characterised by overexpression of BCRP, which confers cross resistance to topotecan, irinotecan and to its metabolite SN38): maintained in McCoy 5A medium+10% FCS.
2.2 Scheme of the Antiproliferative Activity Experiment (Treatment Time: 72 Hours)
as §1, §2, §3

Sequence of Vacuolar ATPase in human osteoclastoma (hOc) (P27449 whole entry, looked up): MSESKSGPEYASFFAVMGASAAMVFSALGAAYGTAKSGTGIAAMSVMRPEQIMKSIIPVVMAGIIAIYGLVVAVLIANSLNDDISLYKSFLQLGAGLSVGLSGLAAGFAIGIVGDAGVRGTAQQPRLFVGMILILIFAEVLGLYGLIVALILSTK
Sequence of Vacuolar ATPase in human osteoclastoma (hOc) (Q13488 whole entry, looked up): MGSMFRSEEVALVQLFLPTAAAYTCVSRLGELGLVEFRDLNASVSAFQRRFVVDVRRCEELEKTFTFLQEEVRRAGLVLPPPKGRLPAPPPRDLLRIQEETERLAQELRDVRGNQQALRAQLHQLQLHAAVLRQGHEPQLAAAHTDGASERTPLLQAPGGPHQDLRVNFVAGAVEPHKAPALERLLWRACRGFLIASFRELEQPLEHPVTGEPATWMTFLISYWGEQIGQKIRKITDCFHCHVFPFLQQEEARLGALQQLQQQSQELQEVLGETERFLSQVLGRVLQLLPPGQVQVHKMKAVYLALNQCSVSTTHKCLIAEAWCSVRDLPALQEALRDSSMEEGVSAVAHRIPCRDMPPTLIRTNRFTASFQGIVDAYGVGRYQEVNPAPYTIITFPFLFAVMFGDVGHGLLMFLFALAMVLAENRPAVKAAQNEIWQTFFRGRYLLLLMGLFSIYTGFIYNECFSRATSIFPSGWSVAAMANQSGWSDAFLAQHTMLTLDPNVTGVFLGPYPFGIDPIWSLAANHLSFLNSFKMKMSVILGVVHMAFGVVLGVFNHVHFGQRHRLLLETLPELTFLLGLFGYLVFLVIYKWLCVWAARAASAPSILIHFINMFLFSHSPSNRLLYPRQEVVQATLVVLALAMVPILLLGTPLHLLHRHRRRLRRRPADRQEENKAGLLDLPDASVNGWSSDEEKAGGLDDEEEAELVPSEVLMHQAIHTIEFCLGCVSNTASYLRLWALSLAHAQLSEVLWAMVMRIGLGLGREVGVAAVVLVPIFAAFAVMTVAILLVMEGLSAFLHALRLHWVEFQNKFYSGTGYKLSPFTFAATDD

SMILES: COC(=O)c1[nH]c2cc(OC)c(OC)cc2c1-c1ccc(OC)cc1 [Example 1, 5,6-Dimethoxy-3-(4-methoxy-phenyl)-1H-indole-2-carboxylic acid methyl ester]
- IC50 [1]: 24.4 ± 7.9 µM
- antitumoral efficacy of combined administration with topotecan ([2]; 30 mg/kg p.o. with topotecan 1 or 2 mg/kg p.o., statistically significant with 1 mg topotecan): increased antitumoral efficacy
- tumor growth inhibition ([2]; administered alone, 30 mg/kg p.o., after 7 days of treatment, statistically significant): 43%
- effect of co-treatment with topotecan [3]: synergism; also recorded: clear synergistic effect
- IC50 [4]: 0.5 µM
- effect of combination with topotecan (Combination Index according to Kern) [5]: clear synergistic effect
- effect in combination with cytotoxic agents [6]: marked synergistic effects
- IC50 ([7]; HT-29, HT29, after 72 hours of treatment, range stated for the group, read-out: IC50 values in the sensitive line): 5 to 42 µM
- IC50 ([7]; HT-29, 72 h treatment, read-out: Antiproliferative activity (IC50 ± S.D.) HT-29 72 h treatment): 14.4 ± 2.1 µM
